Where two headings read alike, the source gives them in different places.
Assays:
[1] = Phase I (1b) systemic pharmacokinetics, 600 mg b.i.d. for 10 days; assay type: in vivo, human; conditions: for Cmax: human, plasma, po, 600 mg, 600 mg b.i.d. oral, 8 subjects, read-out: Cmax, systemic, arithmetic mean
Procedure: A phase 1b studied was conducted in 10 elderly normal subjects for the purpose of obtaining plasma and CSF coordinated drug levels and to further assess safety at a dose of 600 mg bid over a 10-day period. The study was double-blinded and placebo controlled with 8 subjects receiving drug.

SNAP-25 = test: Phase IIa CSF pre-synaptic biomarker SNAP-25; assay type: in vivo, human
Source text: (§1) CSF samples were obtained at screening Visit and final Visit via lumbar puncture to determine levels of tau, p-tau, Aβ40, Aβ42 and AChE activity as an initial set of CSF biomarkers. Aliquots of CSF were made available for emerging CSF biomarker methods such as measurement of additional biomarkers including neurofilaments light chain, neurogranin, SNAP-25, synaptotagmin, YKL-40, TREM2, tau oligomers and for measurement of drug level in selected patients based on the time period between last dose of drug and CSF sampling (FIG. 25 and FIG. 58).
(§2) Baseline CSF samples are obtained prior to administration via lumbar puncture. These samples are used to determine levels of tau, p-tau, Aβ40, Aβ42, AChE, neurofilament light chain, SNAP-25, synaptotagmin-1, neurogranin, sTREM, and YKL-40. Aliquots of CSF are also made available for emerging CSF biomarker methods such as measurement of tau oligomers and for measurement of drug level in selected patients based on time period between last dose of the salt of Formula (II) and CSF sampling. […] Many of these biomarkers can also be measured in blood or plasma. The change in values over the time period from pre-treatment to post-treatment are of particular importance. […] Absolute levels at single time points of neurofilament light chain, SNAP-25, synaptotagmin-1, neurogranin, sTREM, and YKL-40 in CSF or blood or plasma are of less value given differences in assay techniques and wide variation in absolute levels within normal subjects and within and across AD subjects. In contrast, absolute levels of Aβ42 and 40 at baseline are useful biomarkers indicating the presence of amyloid pathology as low levels of Aβ42 and 40 at a given time point are consistent with amyloid pathology.

p-tau = test: Phase IIa CSF p-tau; assay type: in vivo, human; conditions: combined drug group
Source text: as §1
(§3) Baseline CSF samples are obtained prior to administration via lumbar puncture. These samples are used to determine levels of tau, p-tau, Aβ40, Aβ42, AChE, neurofilament light chain, SNAP-25, synaptotagmin-1, neurogranin, sTREM, and YKL-40. Aliquots of CSF are also made available for emerging CSF biomarker methods such as measurement of tau oligomers and for measurement of drug level in selected patients based on time period between last dose of the salt of Formula (II) and CSF sampling. […] Many of these biomarkers can also be measured in blood or plasma. The change in values over the time period from pre-treatment to post-treatment are of particular importance. […]

neurogranin = test: Phase IIa CSF post-synaptic biomarker neurogranin (NG-36); assay type: in vivo, human
Source text: as §1, §2

Aβ42, Aβ40 = test: Phase IIa CSF AD core biomarkers Aβ42 and Aβ40; assay type: in vivo, human
Source text: as §1, §2

tau = test: Phase IIa CSF total tau; assay type: in vivo, human
Source text: as §1, §2

SYT1 = test: Phase IIa CSF pre-synaptic biomarker SYT1; assay type: in vivo, human
Source text: as §1, §3

[2] = Estimating human brain exposure to drug; assay type: in vivo; conditions: oral dosing at 200 mg bid and 400 mg bid
Procedure: Key inclusion criteria for the 2a trial include a diagnosis of mild-moderate AD by McKhann criteria and a CSF measure of Ab 42/40 ratio under 0.089 OR a Ab 42 level <550 ng/L (FIG. 28). These criteria are discussed in Schindler et al. 2018.

[3] = Aqueous solubility of the drug substance; assay type: physicochemical; conditions: water
Procedure: Preparation of the clinical dosage form consists of a dry fill of the drug substance into gelatin capsules with no excipients. For the Phase II study, capsules with the salt of Formula (II)(200 mg or 400 mg, free base weight) are machine-filled and packaged in blister strips with aluminum foil backing, which are stored in cardboard boxes. Matching placebo capsules are also available in the same packaging.

[4] = annual percent change (APC), 6-month trial period

CC[C@H](C)[C@H](N)C(=O)NCCN1CCOCC1 [LM11A-31-BHS, Tris[(2S,3S)-2-amino-3-methyl-N-(2-morpholinoethyl)pentanamide] tetra(monohydrogensulfate), monosulfate]
linearity of pharmacokinetics ([1]; 600 mg BID during 10 days): linear | Cmax ([1]; day 1): 1270 ng/mL | Cmax ([1]; day 10): 885 ng/mL | CSF SNAP-25, drug dose analysis (SNAP-25; 200 and 400 mg doses, post hoc Dunn's test does not reach significance): significant main effect of drug dose | drug effect in slowing or inhibiting the SNAP-25 increase, younger (<72 years) versus older (>=72 years) (SNAP-25; [4]): greater than that found in the older group | CSF SNAP-25 change in the drug group (SNAP-25; combined drug group, 6 months, drug effect p=0.01): no increase was detected | CSF p-tau, drug versus placebo (p-tau): trend for the drug to inhibit the trend to rise in p-tau | CSF neurogranin-36, drug dose analysis (neurogranin; 200 mg dose versus placebo): significant lowering of NG-36 | CSF neurogranin-36, drug dose analysis (neurogranin; 400 mg dose versus placebo): trend for reduction | CSF neurogranin levels in the drug group (neurogranin; combined drug group, 6 months, p=0.02): significant decrease | CSF Ab 42 change in the drug group (Aβ42, Aβ40; combined drug group, 26 weeks, p=0.003): went down by a significant amount | CSF Ab 42, difference between placebo and drug (Aβ42, Aβ40; combined drug group, p=0.03): significant | effect on levels of Aβ42 and 40 (Aβ42, Aβ40; daily treatment, CSF): ability to lower levels of Aβ42 and 40 | CSF total tau, drug dose analysis (tau; 200 mg bid or 400 mg bid versus placebo): trends for lowering of total tau reduction, especially at the 400 mg dose | drug effect in slowing or inhibiting the CSF tau increase, younger (<72 years) versus older (>=72 years) (tau; [4]): greater than that found in the older group | effect compared to placebo in decreasing the elevation of CSF tau (tau; combined drug group, 6 month treatment period, p=0.06): near-significant effect | increase of CSF tau levels in the drug group (tau; combined drug group, 6 months, p=0.2 (placebo increase p=0.003)): no longer detected at a significant level | CSF SYT1 levels, drug dose analysis (SYT1; 200 and 400 mg doses): only nominal reductions below baseline at both doses | CSF SYT1 change in the drug group (SYT1; combined drug group, 6 months, p=0.06): trend for a decrease | estimated human brain levels of drug [2]: in a range found to engage target mechanisms and derive therapeutic benefit in mouse models | solubility [3]: > 30 mg/mL
